These results are taken from patent US9725432B2, “Pyrimidine derivatives for the treatment of bacterial diseases” (JANSSEN R&D IRELAND, priority 2012, dated 2017).

For one series, the system named is Staphylococcus aureus. Put plainly: Antibacterial susceptibility testing: IC90 determination (broth microdilution, resazurin fluorescence). The format is cell-based. Conditions: 90% inhibitory concentration for bacterial growth, Mueller Hinton broth, 35° C., 16-20 hours, strain not given. As to the method: Preparation of Bacterial Suspensions for Susceptibility Testing
The following bacteria were used: Staphylococcus aureus ATCC 29213, methicillin-resistant Staphylococcus aureus (MRSA) ATCC 700788 and Escherichia coli ATCC 35218. The bacteria used in this study were grown overnight in flasks containing 100 ml Mueller-Hinton broth (Difco cat. nr. 0757-17) in sterile de-ionized water, with shaking, at 37° C. Stocks were store at −70° C. until use.
Bacteria were incubated on a tryptic soy agar plate containing 5% sheep blood (Becton Dickinson cat. nr. 254053) for 18-24 hours at 35° C. in aerobic conditions (first passage). For the second passage, fresh Mueller-Hinton broth is inoculated with 5-10 colonies and grown overnight at 35° C. until turbidity (reaching log-phase) in aerobic conditions is reached. The bacterial suspension is then adjusted to 0.5 McFarland density and further diluted 1:100 in Mueller Hinton broth medium. This is used as inoculum.
Antibacterial Susceptibility Testing: IC90 Determination
MIC assays were performed by the broth microdilution method in a 96-well format (flat-bottom microtitre plates) with a final volume of 0.1 ml Mueller Hinton broth containing two-fold serial dilutions of compounds and inoculated with 5×10^5 CFU/ml of bacteria (standard inoculum size according to CLSI guidelines). Inhibitors are typically varied over the range of 63 to 0.49 μM. The final DMSO concentration in the assay was 1.25% (maximum tolerable DMSO concentration=6%). In the assays where the effect of human serum on the activity of the compounds against S. aureus was tested, human serum was added at a final concentration of 10%. The plates were incubated at 35° C. for 16-20 hours. At the end of incubation the bacterial growth was quantified fluorometrically. For this, resazurin was added to all wells and the plates were re-incubated. The incubation time is dependent on the type of bacteria. A change in color from blue to pink indicated the growth of bacteria. The fluorescence was read in computer-controlled fluorometer (Fluoroskan Ascent FL, Labsystems) at an excitation wavelength 540 nm and an emission wavelength of 590 nm. The % growth inhibition achieved by the compounds was calculated according to standard methods. The IC90 (expressed in μg/ml) was defined as the 90% inhibitory concentration for bacterial growth. A panel of reference compounds were simultaneously tested for QC approval.
For orientation: Broth dilution looks for growth in wells or tubes with falling amounts of substance.

A further series in a line: Cytotoxicity MTT assay. The format is cell-based. Conditions: human, HelaM cells, concentration that causes 50% reduction in cell viability. As for the experimental part: Cytotoxicity of the compounds was evaluated using the MTT assay. Human HelaM cells grown in 96-well plates were exposed to serial dilutions of the tested compounds (final volume of 0.2 ml) and incubated for 72 hours at 37° C. and 5% CO2 Inhibitors are typically varied over the range of 25 to 0.8 μM. The final DMSO concentration in the assay is 0.5%. MTT (3-(4,5-Dimethylthiazol-2-yl)-2,5-diphenyltetrazolium bromide, a tetrazole) was added and reduced to purple formazan only in living cells. Solubilization of the formazan crystals was achieved by adding 100 μl 2-propanol. Cell viability was determined by measuring the absorbance of the reduced formazan, giving a purple color, at 540 nm and 690 nm. The absorbance measured at 690 nm was automatically subtracted from the absorbance at 540 nm, to eliminate the effects of non-specific absorption. The percent cytotoxicity achieved by the compounds was calculated according to standard methods. Cytotoxicity is reported as CC50, the concentration that causes a 50% reduction in cell viability.
(Tetrazolium dyes change colour on reduction, which living cells bring about.)

In brackets after ≈: the same amount, converted by molar mass.

The melting point is the temperature of the solid-liquid transition. As usually defined, the IC90 is the point of the concentration-response curve where the effect stands at 90%. In general, CC50 refers to the concentration giving 50% cytotoxicity. The low end stands for greater toxicity to the cells, the high end for lower toxicity to the cells.

Compound `COc1cccc(-c2cnc(-c3ccncc3)nc2C2CCN(Cc3c(F)cccc3F)CC2)c1` [Compound 47] displayed a melting point of 184 °C. The 90% effect concentration (IC90) in the series on Staphylococcus aureus is 1.74 µg/mL (≈ 3.68 µM). Further, in “Cytotoxicity MTT assay”, the CC50 at 72 h turned out to be 2.1 µg/mL (≈ 4.44 µM).
With `C#CCN1CCC(c2nc(-c3ccncc3)ncc2-c2cccc(OC)c2)CC1` [Compound 49], the melting point worked out at 160 °C. Also, in the series with Staphylococcus aureus, the IC90 came to 12.2 µg/mL (≈ 31.6 µM). Moreover, the cytotoxic concentration (CC50) at 72 h in the series “Cytotoxicity MTT assay” is > 9.7 µg/mL.
Turning to `C/C=C(\C)CN1CCC(c2nc(-c3ccncc3)ncc2-c2cccc(OC)c2)CC1` [Compound 2], in the series with Staphylococcus aureus, it took 13.7 µg/mL (≈ 33.1 µM) to reach the 90% level (IC90).
In the case of `COc1cccc(-c2cnc(-c3ccncc3)nc2C2CCN(Cc3sccc3C)CC2)c1` [Compound 1], the IC90 in the series with Staphylococcus aureus stood at 8.5 µg/mL (≈ 18.6 µM).
Turning to `COc1cccc(-c2cnc(-c3ccncc3)nc2C2CCN(CC(F)F)CC2)c1` [Compound 56], the melting point stood at 123 °C. The IC90 with Staphylococcus aureus amounted to 1.49 µg/mL (≈ 3.63 µM). Moreover, the CC50 at 72 h in “Cytotoxicity MTT assay” was > 10.3 µg/mL.
Regarding `COc1cccc(-c2cnc(-c3ccncc3)nc2C2CCN(Cc3ccccc3F)CC2)c1` [Compound 41], the melting point was determined as 139 °C. The 90% effect level with Staphylococcus aureus (IC90) was put at 8.66 µg/mL (≈ 19.1 µM). Besides, it took 7.7 µg/mL (≈ 16.9 µM) to reach half-maximal cytotoxicity in the series “Cytotoxicity MTT assay” (CC50 at 72 h).
`CC(C)(C)CN1CCC(c2nc(-c3ccc(C#N)cc3)ncc2-c2cccc(C#N)c2)CC1` [Compound 65] had a melting point of 247 to 249 °C. This compound also gave a 90% effect concentration (IC90) in the series with Staphylococcus aureus of 0.13 µg/mL (≈ 0.298 µM). The CC50 at 72 h in “Cytotoxicity MTT assay” was > 4.4 µg/mL.
The compound `COc1cccc(-c2cnc(-c3ccncc3)nc2C2CCN(CC3CCCCC3)CC2)c1` [Compound 17] gave a melting point of 130 °C. In addition, in the series with Staphylococcus aureus, the IC90 was 13.4 µg/mL (≈ 30.2 µM). In addition, the CC50 at 72 h in the series “Cytotoxicity MTT assay” was > 11.1 µg/mL.
In turn, `Cc1ccc(-c2cnc(-c3ccncc3)nc2C2CCN(CC(C)(C)C)CC2)cc1` [Compound 38] showed a melting point of 170 to 171 °C. This compound displayed a 90% effect concentration (IC90) in the series on Staphylococcus aureus of 5.04 µg/mL (≈ 12.6 µM). The 50% cytotoxic concentration (CC50) at 72 h in “Cytotoxicity MTT assay” is > 4 µg/mL.
In the series on Staphylococcus aureus, `COc1cccc(-c2cnc(-c3ccncc3)nc2C2CCN(CC(C)(F)F)CC2)c1` [Compound 70] came in with an IC90 of 0.64 µg/mL (≈ 1.51 µM). In “Cytotoxicity MTT assay”, the CC50 at 72 h was 6.7 µg/mL (≈ 15.8 µM).
`Cc1cccc(-c2cnc(-c3ccncc3)nc2C2CCN(Cc3ccccc3O)CC2)c1` [Compound 8] showed a melting point of 149 to 151 °C. Moreover, the 90% effect concentration (IC90) with Staphylococcus aureus stood at 5.5 µg/mL (≈ 12.6 µM). The CC50 at 72 h in the series “Cytotoxicity MTT assay” is > 4.4 µg/mL.
Turning to `CC(C)(C)CN1CCCC(c2nc(-c3cccnc3)ncc2-c2cccc(C#N)c2)C1` (stereo not shown) [Compound 62], the melting point lay in the range of 57 to 113 °C. For the same compound, the IC90 in the series with Staphylococcus aureus was > 25.9 µg/mL. For the same compound, the CC50 at 72 h in “Cytotoxicity MTT assay” was > 10.3 µg/mL.
Regarding `CN(C)c1ncc(-c2cccc(Cl)c2)c(C2CCN(CC(C)(C)C)CC2)n1` [Compound 52], in the series with Staphylococcus aureus, the IC90 turned out to be 1.28 µg/mL (≈ 3.31 µM). The compound also registered a CC50 at 72 h in the series “Cytotoxicity MTT assay” of 6.7 µg/mL (≈ 17.3 µM).
Regarding `COc1cccc(-c2cnc(-c3ccncc3)nc2C2CCN(CC(F)(F)F)CC2)c1` [Compound 55], the IC90 in the series with Staphylococcus aureus was 0.39 µg/mL (≈ 0.91 µM). Also, the CC50 at 72 h in “Cytotoxicity MTT assay” stood at 6.3 µg/mL (≈ 14.7 µM).
`COc1cccc(-c2cnc(-c3ccncc3)nc2C2CCN(C(=O)C(C)Oc3ccccc3)CC2)c1` (stereo not shown) [Compound 20] came in with an IC90 in the series on Staphylococcus aureus of 7.15 µg/mL (≈ 14.5 µM). The CC50 at 72 h in “Cytotoxicity MTT assay” turned out to be 8.1 µg/mL (≈ 16.4 µM).
In turn, `Oc1ccccc1CN1CCC(c2nc(-c3cccnc3)ncc2-c2ccccc2)CC1` [Compound 7] returned an IC90 with Staphylococcus aureus of 14.3 µg/mL (≈ 33.9 µM).
On the same count and under the same terms, the result for `CC1(CN2CCC(c3nc(-c4ccncc4)ncc3-c3cccc(C#N)c3)CC2)COC1` [Compound 72] reads 25.9 µg/mL (≈ 61 µM); that for `COc1cccc(-c2cnc(-c3ccc(F)cc3)nc2C2CCN(CC(F)(F)F)CC2)c1` [Compound 71], < 0.22 µg/mL.
In the case of `CC(C)(C)CN1CCCC(c2nc(-c3ccncc3)ncc2-c2cccc(C#N)c2)C1` (stereo not shown) [Compound 61], the IC90 in the series on Staphylococcus aureus was > 25.9 µg/mL. In addition, in “Cytotoxicity MTT assay”, the CC50 at 72 h is > 10.3 µg/mL.
In the series on Staphylococcus aureus, `CN(C)c1ncc(-c2ccccc2F)c(C2CCN(CC(C)(C)C)CC2)n1` [Compound 51] came in with an IC90 of 13.4 µg/mL (≈ 36.3 µM). Besides, the CC50 at 72 h in the series “Cytotoxicity MTT assay” is 7.8 µg/mL (≈ 21.1 µM).
`COc1ccc(-c2cnc(N(C)C)nc2C2CCN(CC(C)(C)C)CC2)cc1` [Compound 53] had an IC90 in the series with Staphylococcus aureus of 5.47 µg/mL (≈ 14.3 µM). Besides, in “Cytotoxicity MTT assay”, half-maximal cytotoxicity (CC50 at 72 h) was put at 7.5 µg/mL (≈ 19.6 µM).
